Patent US10774053B2, “HIV protease inhibitors” (Gilead Sciences, Inc., priority 2017, dated 2020)

What follows are molecules tested on HIV-1 (IIIB) in MT-4 cells (assay: microbe, parasite or virus in culture). Conditions: Human immunodeficiency virus 1, IIIB, MT4, MT-4 cells, HIV-1; read-out: MT4 EC50.
Assay type: cell-based
Description: Compounds were serially diluted (1:3) in DMSO on 384-well polypropylene plates and further diluted 200-fold into complete RPMI media (10% FBS, 1% P/S) using the Biotek Micro Flow and Agilent ECHO acoustic dispenser. Each plate contained up to 8 test compounds, with negative (No Drug Control) and 5 uM AZT positive controls. MT-4 cells were pre-infected with 10 uL of either RPMI (mock-infected) or a fresh 1:250 dilution of an HIV-1 (IIIB) concentrated virus stock. Infected and uninfected MT-4 cells were further diluted in complete RPMI media and added to each plate using a Micro Flow dispenser. After 5 days incubation in a humidified and temperature controlled incubator (37° C.), Cell Titer Glo (Promega) was added to the assay plates to quantify the amount of luciferase.

Row | SMILES | EC50 [nM]
1 | CC(C)(C)C[C@]1(c2ccc(-c3cnn(C(F)F)c3)cc2)NC(=N)N([C@H](COC(=O)N[C@@H]2CC2(F)F)c2ccc(Cl)c(-n3ncnc3C(F)F)c2)C1=O (single isomer, unassigned) [Compound 334] | 8.98
2 | C[C@@H](CC#N)C[C@]1(c2ccc(-c3cnn(C(F)F)c3)cc2)NC(=N)N([C@H](COC(=O)NC2(C(F)(F)F)CC2)c2ccc(Cl)c(-n3ncnc3C(F)F)c2)C1=O (single isomer, unassigned) [Compound 346] | 31.9
3 | C[C@H](CC#N)C[C@]1(c2ccc(-c3cnn(C(F)F)c3)cc2)NC(=N)N([C@H](COC(=O)NC2(C(F)(F)F)CC2)c2ccc(Cl)c(-n3ncnc3C(F)F)c2)C1=O (single isomer, unassigned) [Compound 347] | 32
4 | COc1ccc([C@@]2(CC(C)(C)C)NC(=N)N([C@H](COC(=O)N(C)C)c3ccc(Cl)c(-c4ncccc4C)c3)C2=O)c(F)c1 [Compound 1] | 64.6
5 | CN(C)C(=O)OC[C@H](c1ccc(Cl)c(-c2ncc(-c3ccccc3)s2)c1)N1C(=N)N[C@@](c2cc(F)cc(F)c2)(C2CC2)C1=O [Compound 2] | 3000
6 | CN(C)C(=O)OC[C@H](c1ccc(Cl)c(-c2ncc(N3CCOCC3)s2)c1)N1C(=N)N[C@@](c2cc(F)cc(F)c2)(C2CC2)C1=O [Compound 3] | 5710
7 | CN(C)C(=O)OC[C@H](c1ccc(Cl)c(-c2ncc(-c3ccccc3)o2)c1)N1C(=N)N[C@@](c2cc(F)cc(F)c2)(C2CC2)C1=O [Compound 4] | 3620
8 | CN(C)C(=O)OC[C@H](c1ccc(Cl)c(-c2nccs2)c1)N1C(=N)N[C@@](c2cc(F)cc(F)c2)(C2CC2)C1=O [Compound 5] | 5710
9 | CN(C)C(=O)OC[C@H](c1ccc(Cl)c(-c2nc(-c3ccccc3)cs2)c1)N1C(=N)N[C@@](c2cc(F)cc(F)c2)(C2CC2)C1=O [Compound 6] | 5710
10 | Cc1ncoc1-c1cccc([C@@H](COC(=O)NC(C)C)N2C(=N)N[C@](CC(C)C)(c3ccccc3)C2=O)c1 [Compound 7] | 57100
11 | COc1ccc([C@@]2(CC(C)(C)C)NC(=N)N([C@H](COC(=O)N(C)C)c3ccc(Cl)c(-c4ccccn4)c3)C2=O)c(F)c1 [Compound 8] | 277
12 | COc1ccc([C@@]2(CC(C)(C)C)NC(=N)N([C@H](COC(=O)N(C)C)c3ccc(Cl)c(-c4nccn4C)c3)C2=O)c(F)c1 [Compound 9] | 1690
13 | [H]/N=C1\N[C@](CC(C)(C)C)(c2ccc(-c3cnn(C(F)F)c3)cc2F)C(=O)N1[C@H](COC(=O)NC1CC1)c1ccc(Cl)c(-c2ncn[nH]2)c1 [Compound 11] | 35.5
14 | [H]/N=C1\N[C@](CC(C)(C)C)(c2ccc(-c3cnn(C(F)F)c3)cc2F)C(=O)N1[C@H](COC(=O)NC1CC1)c1ccc(Cl)c(-c2ncccc2C)c1 [Compound 12] | 22.2
15 | [H]/N=C1\N[C@](CC(C)(C)C)(c2ccc(-c3cnn(C(F)F)c3)cc2)C(=O)N1[C@H](COC(=O)NC1CC1)c1ccc(Cl)c(-c2nccc(OC)n2)c1 [Compound 15, (S)-2-(4-chloro-3-(4-methoxypyrimidin-2-yl)phenyl)-2-((R)-4-(4-(1-(difluoromethyl)-1H-pyrazol-4-yl)phenyl)-2-imino-4-neopentyl-5-oxoimidazolidin-1-yl)ethyl cyclopropylcarbamate] | 230
16 | [H]/N=C1\N[C@](CC(C)(C)C)(c2ccc(-c3cnn(C(F)F)c3)cc2)C(=O)N1[C@H](COC(=O)NC1CC1)c1ccc(Cl)c(-c2ncc[nH]2)c1 [Compound 16] | 11.4
17 | Cn1ncnc1-c1cc([C@@H](COC(=O)NC2CC2)N2C(=N)N[C@](CC(C)(C)C)(c3ccc(-c4cnn(C(F)F)c4)cc3)C2=O)ccc1Cl [Compound 18] | 9.56
18 | CC(C)(C)C[C@]1(c2ccc(-c3cnn(C(F)F)c3)cc2)NC(=N)N([C@H](COC(=O)NC2CC2)c2ccc(Cl)c(-c3ncn[nH]3)c2)C1=O [Compound 19] | 49.9
19 | CC(C)(C)C[C@]1(c2ccc(-c3cnccn3)cc2F)NC(=N)N([C@H](COC(=O)NC2CC2)c2ccc(Cl)c(-c3ncn[nH]3)c2)C1=O [Compound 21] | 63.8
20 | CC(C)(C)C[C@]1(c2ccc(-c3cnn(C(F)F)c3)cc2)NC(=N)N([C@H](COC(=O)NC2CC2)c2ccc(Cl)c(-c3nc(Cl)c(Cl)[nH]3)c2)C1=O [Compound 23] | 70.4
21 | CC(C)(C)C[C@]1(c2ccc(-c3cnn(C(F)F)c3)cc2)NC(=N)N([C@H](COC(=O)NC2CC2)c2ccc(Cl)c(-c3cc[nH]n3)c2)C1=O [Compound 24] | 68.2
22 | CC(C)(C)C[C@]1(c2ccc(-c3cnccn3)cc2)NC(=N)N([C@H](COC(=O)NC2(C(F)(F)F)CC2)c2ccc(Cl)c(-c3ncn[nH]3)c2)C1=O [Compound 27] | 80.4

Row | SMILES | EC50 [nM]
23 | CC(C)(C)C[C@]1(c2ccc(-c3cnccn3)cc2)NC(=N)N([C@H](COC(=O)NC2CC2)c2ccc(Cl)c(-c3ncn[nH]3)c2)C1=O [Compound 28] | 91.7
24 | [H]/N=C1\N[C@](CC(C)(C)C)(c2ccc(-c3cnn(C(F)F)c3)cc2)C(=O)N1[C@H](COC(N)=O)c1ccc(Cl)c(-c2c[nH]cn2)c1 [Compound 29] | 228
25 | [H]/N=C1\N[C@](CC(C)(C)C)(c2ccc(-c3cnn(C(F)F)c3)cc2)C(=O)N1[C@H](COC(=O)NC1CC1)c1ccc(Cl)c(-c2c[nH]cn2)c1 [Compound 30] | 120
26 | CC(C)(C)C[C@]1(c2ccc(-c3cnn(C(F)F)c3)cc2)NC(=N)N([C@H](COC(=O)NC2(C)CC2)c2ccc(Cl)c(-c3ncn[nH]3)c2)C1=O [Compound 31] | 51
27 | CC(C)(C)C[C@]1(c2ccc(-c3cnccn3)cc2)NC(=N)N([C@H](COC(=O)NC2(C)CC2)c2ccc(Cl)c(-c3ncn[nH]3)c2)C1=O [Compound 33] | 37.2
28 | CC(C)(C)C[C@]1(c2ccc(-c3cnn(C(F)F)c3)cc2)NC(=N)N([C@H](COC(=O)NC2CC2)c2ccc(Cl)c(-c3ncnn3C(F)F)c2)C1=O [Compound 35] | 98.1
29 | CC(C)(C)C[C@]1(c2ccc(-c3cnn(C(F)F)c3)cc2)NC(=N)N([C@H](COC(=O)NC2CC2)c2ccc(Cl)c(-c3cn(C(F)F)cn3)c2)C1=O [Compound 36] | 89.3
30 | CC(C)(C)C[C@]1(c2ccc(-c3cnn(C(F)F)c3)cc2)NC(=N)N([C@H](COC(=O)NC2CC2)c2ccc(Cl)c(-c3cncn3C(F)F)c2)C1=O [Compound 37] | 219
31 | CC(C)(C)C[C@]1(c2ccc(-c3cnn(C(F)F)c3)cc2)NC(=N)N([C@H](COC(=O)NC2CC2)c2ccc(Cl)c(-c3ncnn3C3CC3)c2)C1=O [Compound 38] | 9.83
32 | [H]/N=C1\N[C@](CC(C)(C)C)(c2ccc(-c3cnn(C(F)F)c3)cc2)C(=O)N1[C@H](COC(=O)NC1CC1)c1ccc(Cl)c(-c2nncs2)c1 [Compound 39] | 29.8
33 | Cc1nnc(-c2cc([C@@H](COC(=O)NC3CC3)N3C(=N)N[C@](CC(C)(C)C)(c4ccc(-c5cnn(C(F)F)c5)cc4)C3=O)ccc2Cl)[nH]1 [Compound 40] | 84.1
34 | Cn1cc(-c2cc([C@@H](COC(=O)NC3CC3)N3C(=N)N[C@](CC(C)(C)C)(c4ccc(-c5cnn(C(F)F)c5)cc4)C3=O)ccc2Cl)nn1 [Compound 41] | 18.1
35 | CC(C)(C)C[C@]1(c2ccc(-c3cnn(C(F)F)c3)cc2)NC(=N)N([C@H](CO)c2ccc(Cl)c(-c3ncn[nH]3)c2)C1=O [Compound 42] | 103
36 | CC(C)(C)C[C@]1(c2ccc(-c3cnn(C(F)F)c3)cc2)NC(=N)N([C@H](COC(=O)NC2(C)CC2)c2ccc(Cl)c(-c3ncnn3C3CC3)c2)C1=O [Compound 43] | 8.18
37 | [H]/N=C1\N[C@](CC(C)(C)C)(c2ccc(-c3cnn(C(F)F)c3)cc2)C(=O)N1[C@H](COC(=O)NC1CC1)c1ccc(Cl)c(-c2nnc(C3CC3)s2)c1 [Compound 44] | 246
38 | CC(C)(C)C[C@]1(c2ccc(-c3cnn(C(F)F)c3)cc2)NC(=N)N([C@H](COC(=O)NC(C)(C)C(F)(F)F)c2ccc(Cl)c(-c3ncn[nH]3)c2)C1=O [Compound 45] | 31.7
39 | CC(C)(C)C[C@]1(c2ccc(-c3cnn(C(F)F)c3)cc2)NC(=N)N([C@H](CO)c2ccc(Cl)c(-c3ncnn3C3CC3)c2)C1=O [Compound 46] | 37.6
40 | CC(C)(C)C[C@]1(c2ccc(-c3cnn(C(F)F)c3)cc2)NC(=N)N([C@H](COC(=O)NC2(C)CC2)c2ccc(Cl)c(-c3ccccn3)c2)C1=O [Compound 47] | 60.9
41 | [H]/N=C1\N[C@](CC(C)(C)C)(c2ccc(-c3cnn(C(F)F)c3)cc2)C(=O)N1[C@H](COC(=O)NC1CC1)c1ccc(Cl)c(-c2ncns2)c1 [Compound 48] | 80
42 | [H]/N=C1\N[C@](CC(C)(C)C)(c2ccc(-c3cnn(C4CC4)c3)cc2)C(=O)N1[C@H](COC(=O)N1CC(F)(F)C1)c1ccc(Cl)c(-c2ccccn2)c1 [Compound 49] | 68.1
43 | CC(C)(C)C[C@]1(c2ccc(-c3ccccn3)cc2)NC(=N)N([C@H](COC(=O)NC2(C(F)(F)F)CC2)c2ccc(Cl)c(-c3ncn[nH]3)c2)C1=O [Compound 60] | 28.5

Same assay, conditions: Human immunodeficiency virus 1, IIIB, MT4, read-out: MT4 EC50 (nM)

Row | SMILES | EC50 [nM]
44 | [H]/N=C1\N[C@](CC(C)(C)C)(c2ccc(OC)cc2F)C(=O)N1[C@H](COC(=O)N(C)C)c1ccc(Cl)c(-c2ncccc2F)c1 [Compound 10] | 91.9
45 | [H]/N=C1\N[C@](CC(C)(C)C)(c2ccc(-c3cnn(C(F)F)c3)cc2F)C(=O)N1[C@H](COC(=O)NC1CC1)c1ccc(Cl)c(-c2ncccc2Cl)c1 [Compound 13] | 310
46 | [H]/N=C1\N[C@](CC(C)(C)C)(c2ccc(-c3cnn(C(F)F)c3)cc2F)C(=O)N1[C@H](COC(=O)NC1CC1)c1ccc(Cl)c(-c2ncccn2)c1 [Compound 14] | 68.6
47 | CC(C)(C)C[C@]1(c2ccc(-c3cnn(C(F)F)c3)cc2)NC(=N)N([C@H](COC(=O)NC2(C(F)(F)F)CC2)c2ccc(Cl)c(-c3ncn[nH]3)c2)C1=O [Compound 25] | 52.7
